For 32 molecules, IC50 results are on record in patent US20120264735A1 (priority 2009, published 2012).

T1 sequence (P08581 25-1390): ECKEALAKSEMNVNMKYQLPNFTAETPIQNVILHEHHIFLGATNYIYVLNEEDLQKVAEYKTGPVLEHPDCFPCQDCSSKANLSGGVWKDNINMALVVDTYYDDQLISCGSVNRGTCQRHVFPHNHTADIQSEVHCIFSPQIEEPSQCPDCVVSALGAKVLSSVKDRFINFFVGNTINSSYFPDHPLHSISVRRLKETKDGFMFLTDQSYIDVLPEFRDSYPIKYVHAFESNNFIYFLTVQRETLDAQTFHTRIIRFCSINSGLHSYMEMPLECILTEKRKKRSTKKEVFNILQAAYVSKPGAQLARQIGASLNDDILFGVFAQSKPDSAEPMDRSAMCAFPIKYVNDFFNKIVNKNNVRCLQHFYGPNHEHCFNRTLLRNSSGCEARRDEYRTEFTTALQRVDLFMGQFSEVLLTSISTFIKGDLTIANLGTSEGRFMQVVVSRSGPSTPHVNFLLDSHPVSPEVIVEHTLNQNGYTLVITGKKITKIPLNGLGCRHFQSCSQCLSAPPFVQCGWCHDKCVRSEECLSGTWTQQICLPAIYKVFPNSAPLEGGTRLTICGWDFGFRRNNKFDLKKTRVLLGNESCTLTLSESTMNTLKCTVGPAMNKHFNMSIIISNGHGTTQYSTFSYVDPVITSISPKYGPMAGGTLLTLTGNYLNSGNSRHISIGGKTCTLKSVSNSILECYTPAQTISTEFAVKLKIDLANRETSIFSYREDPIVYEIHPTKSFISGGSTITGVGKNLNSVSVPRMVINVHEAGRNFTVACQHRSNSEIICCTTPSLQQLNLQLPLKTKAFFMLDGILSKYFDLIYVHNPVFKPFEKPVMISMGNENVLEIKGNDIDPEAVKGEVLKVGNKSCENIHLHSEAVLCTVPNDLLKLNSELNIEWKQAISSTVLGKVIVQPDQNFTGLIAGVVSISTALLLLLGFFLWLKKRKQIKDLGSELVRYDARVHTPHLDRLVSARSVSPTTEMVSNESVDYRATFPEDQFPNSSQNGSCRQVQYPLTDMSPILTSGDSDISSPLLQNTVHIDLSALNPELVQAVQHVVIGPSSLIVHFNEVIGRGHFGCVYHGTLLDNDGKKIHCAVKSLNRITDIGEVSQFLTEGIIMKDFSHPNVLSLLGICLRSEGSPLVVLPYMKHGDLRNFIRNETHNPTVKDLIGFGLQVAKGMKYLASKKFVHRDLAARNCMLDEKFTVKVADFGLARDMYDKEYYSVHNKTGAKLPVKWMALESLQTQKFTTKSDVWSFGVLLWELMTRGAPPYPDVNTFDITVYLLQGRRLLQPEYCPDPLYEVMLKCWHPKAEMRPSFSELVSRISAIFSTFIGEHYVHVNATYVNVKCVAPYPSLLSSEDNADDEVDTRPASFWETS

This assay concerns the target T1, c-Met kinase (recombinant c-Met) (Homo sapiens, UniProt P08581).
T1 construct: 0.27 nM recombinant c-Met
Put plainly: In vitro kinase assay I (homogeneous time-resolved fluorescence tyrosine kinase assay). It is filed as biochemical. The gist of the method:
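Biotinylated peptide (0.5 μM) phosphorylated by 0.2 nM recombinant c-Met with 50 μM MgATP, 60 min at room temperature, pH 7.4, 5% DMSO. EDTA stop; HTRF read with Eu-anti-phosphotyrosine antibody and streptavidin-APC. IC50 from 4-parameter logistic fit.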
By IC50 is commonly meant the concentration that gives 50% inhibition. For the molecule `CCOc1cnc(-c2cccc(Cc3nn(-c4cccc(F)c4)ccc3=O)c2)nc1` [Example 725, 3-(3-(5-Ethoxypyrimidin-2-yl)benzyl)-1-(3-fluorophenyl)pyridazin-4(1H)-one], the IC50 was < 100 nM.
As for `CCCOc1cnc2ccc(Cc3nn(-c4cnn(C)c4)ccc3=O)cc2c1` [Example 63, 1-(1-methyl-1H-pyrazol-4-yl)-3-[(3-propoxyquinolin-6-yl)methyl]pyridazin-4(1H)-one], the figure is < 100 nM; as for `CCCn1cnc(-c2cccc(Cc3nn(-c4cccc(C(N)=O)c4)ccc3=O)c2)n1` [Example 735, 3-{4-oxo-3-[3-(1-propyl-1H-1,2,4-triazol-3-yl)benzyl]pyridazin-1(4H)-yl}benzamide], 100 to 1000 nM; as for `CCOC(=O)Nc1cccc(C(F)c2nn(-c3cnn(C)c3)ccc2=O)c1` (racemic) [Example 639, rac-Ethyl(3-{fluoro[1-(1-methyl-1H-pyrazol-4-yl)-4-oxo-1,4-dihydropyridazin-3-yl]methyl}phenyl)carbamate], < 100 nM.
As for `CC(c1cccc(-c2ncc(OC3COC3)cn2)c1)c1nn(-c2cnn(C)c2)ccc1=O` (single isomer, unassigned) [Example 216, 1-(1-methyl-1H-pyrazol-4-yl)-3-((1R or S)-1-{3-[5-(oxetan-3-yloxy)pyrimidin-2-yl]phenyl}ethyl)pyridazin-4(1H)-one], the figure is < 100 nM.
For the molecule `COCCNC(=O)Nc1cccc(Cc2nn(-c3cnn(C)c3)ccc2=O)c1` [Example 493, 1-(2-methoxyethyl)-3-(3-{[1-(1-methyl-1H-pyrazol-4-yl)-4-oxo-1,4-dihydropyridazin-3-yl]methyl}phenyl)urea], the IC50 was < 100 nM.
Then `CCOC(=O)Nc1cccc(Cc2nn(-c3ccc(OC)nc3)ccc2=O)c1` [Example 31, ethyl (3-{[1-(6-methoxypyridin-3-yl)-4-oxo-1,4-dihydropyridazin-3-yl]methyl}phenyl)carbamate], with < 100 nM.
Then `CCCOC(=O)Nc1cccc(Cc2nn(-c3cnn(C)c3)ccc2=O)c1` [Example 52, propyl (3-{[1-(1-methyl-1H-pyrazol-4-yl)-4-oxo-1,4-dihydropyridazin-3-yl]methyl}phenyl)carbamate], with < 100 nM.
Then `CC(C)COC(=O)Nc1cccc(Cc2nn(-c3cnn(CCC(=O)N4CCOCC4)c3)ccc2=O)c1` [Example 703, 2-methylpropyl [3-({1-[1-(3-morpholin-4-yl-3-oxopropyl-1H-pyrazol-4-yl]-4-oxo-1,4-dihydropyridazin-3-yl}methyl)phenyl] carbamate], with < 100 nM; and `CC1(COc2cnc(-c3cccc(Cc4nn(-c5ccc(F)c(F)c5)ccc4=O)c3)nc2)COC1` [Example 329, 1-(3,4-difluorophenyl)-3-(3-{5-[(3-methyloxetan-3-yl)methoxy]pyrimidin-2-yl}benzyl)pyridazin-4(1H)-one], with < 100 nM; and `CC(c1cccc(-c2ncc(-n3cnnc3)cn2)c1)c1nn(-c2cnn(C)c2)ccc1=O` (single isomer, unassigned) [Example 240, 1-(1-methyl-1H-pyrazol-4-yl)-3-[(1R or S)-1-{3-[5-(4H-1,2,4-triazol-4-yl)pyrimidin-2-yl]phenyl}ethyl]pyridazin-4(1H)-one], with 100 to 1000 nM.
Regarding `CCn1cc(-n2ccc(=O)c(C(C)c3cccc(-c4ncc(OCC5CCNCC5)cn4)c3)n2)cn1` (single isomer, unassigned) [Example 339, 1-(1-ethyl-1H-pyrazol-4-yl)-3-((1R or S)-1-{3-[5-(piperidin-4-ylmethoxy)pyrimidin-2-yl]phenyl}ethyl)pyridazin-4(1H)-one], the IC50 was < 100 nM.
Then `COc1ccc(CNC(=O)Nc2cccc(Cc3nn(-c4cnn(C)c4)ccc3=O)c2)cc1` [Example 495, 1-(4-methoxybenzyl)-3-(3-{[1-(1-methyl-1H-pyrazol-4-yl)-4-oxo-1,4-dihydropyridazin-3-yl]methyl}phenyl)urea], with < 100 nM; and `CCCc1nc(-c2cccc(Cc3nn(-c4cnn(C)c4)ccc3=O)c2)n[nH]1` [Example 185, 1-(1-Methyl-1H-pyrazol-4-yl)-3-[3-(5-propyl-1H-1,2,4-triazol-3-yl)benzyl]pyridazin-4(1H)-one], with 100 to 1000 nM.
As for `CC(C)COC(=O)Nc1cccc(Cc2nn(-c3cnn(CCCC(=O)NCC(C)O)c3)ccc2=O)c1` (racemic) [Example 706, rac-2-methylpropyl (3-{[1-(1-{4-[(2-hydroxypropyl)amino]-4-oxobutyl}-1H-pyrazol-4-yl)-4-oxo-1,4-dihydropyridazin-3-yl]methyl}phenyl) carbamate], the figure is 100 to 1000 nM.
As for `N#Cc1cncc(-n2ccc(=O)c(Cc3cccc(NC(=O)OCC4CCOC4)c3)n2)c1` (racemic) [Example 130, rac-tetrahydrofuran-3-ylmethyl (3-{[1-(5-cyanopyridin-3-yl)-4-oxo-1,4-dihydropyridazin-3-yl]methyl}phenyl)carbamate], the figure is < 100 nM; as for `CCOC(=O)Nc1cccc(Cc2nn(-c3cnn(CCN)c3)ccc2=O)c1` [Example 647, Ethyl [3-({1-[1-(2-aminoethyl)-1H-pyrazol-4-yl]-4-oxo-1,4-dihydropyridazin-3-yl}methyl)phenyl]carbamate], 100 to 1000 nM.
Regarding `CCCCc1nc(-c2cccc(Cc3nn(-c4cnn(C)c4)ccc3=O)c2)no1` [Example 741, 3-[3-(5-butyl-1,2,4-oxadiazol-3-yl)benzyl]-1-(1-methyl-1H-pyrazol-4-yl)pyridazin 4(1H)-one], the IC50 lay within 100 to 1000 nM.
Then `CCn1cc(-n2ccc(=O)c(C(C)c3cccc(-c4ncc(OCC5(C)COC5)cn4)c3)n2)cn1` (single isomer, unassigned) [Example 304, 1-(1-ethyl-1H-pyrazol-4-yl)-3-[(1R or S)-1-(3-{5-[(3-methyloxetan-3-yl)methoxy]pyrimidin-2-yl}phenyl)ethyl]pyridazin-4(1H)-one], with < 100 nM; and `CCOc1cnc(-c2cccc(Cc3nn(-c4cnn(C5COC5)c4)ccc3=O)c2)nc1` [Example 660, 3-[3-(5-Ethoxypyrimidin-2-yl)benzyl]-1-[1-(oxetan-3-yl)-1H-pyrazol-4-yl]pyridazin-4(1H)-one], with < 100 nM.
Regarding `Cn1cc(-n2ccc(=O)c(Cc3cccc(-c4ncn(C5COC5)n4)c3)n2)cn1` [Example 707, 1-(1-Methyl-1H-pyrazol-4-yl)-3-{3-[1-(oxetan-3-yl)-1H-1,2,4-triazol-3-yl]benzyl}pyridazin-4(1H)-one], the IC50 fell in the range of 100 to 1000 nM.
As for `CC(c1cccc(-c2ncc(OCC(C)(C)O)cn2)c1)c1nn(-c2ccc(F)c(F)c2)ccc1=O` (single isomer, unassigned) [Example 250, 1-(3,4-difluorophenyl)-3-[(1R or S)-1-{3-[5-(2-hydroxy-2-methylpropoxy)pyrimidin-2-yl]phenyl}ethyl]pyridazin-4(1H)-one], the figure is < 100 nM.
Regarding `Cn1cc(-n2ccc(=O)c(Cc3cccc(-c4ncc(OCC(O)c5ccncc5)cn4)c3)n2)cn1` (racemic) [Example 367, rac-3-(3-{5-[2-hydroxy-2-(pyridin-4-yl)ethoxy]pyrimidin-2-yl}benzyl)-1-(1-methyl-1H-pyrazol-4-yl)pyridazin-4(1H)-one], the IC50 is < 100 nM.
In the case of `O=c1ccn(-c2ccc(F)c(F)c2)nc1Cc1cccc(-c2ncc(OCC3COCCO3)cn2)c1` (single isomer, unassigned) [Example 345, 1-(3,4-difluorophenyl)-3-(3-{5-[(2R or S)-1,4-dioxan-2-ylmethoxy]pyrimidin-2-yl}benzyl)pyridazin-4(1H)-one], the IC50 was < 100 nM.
Then `CCn1cc(-n2ccc(=O)c(C(C)c3cccc(-c4ncc(-c5cnn(C)c5)cn4)c3)n2)cn1` (single isomer, unassigned) [Example 234, 1-(1-ethyl-1H-pyrazol-4-yl)-3-[(1S or R)-1-{3-[5-(1-methyl-1H-pyrazol-4-yl)pyrimidin-2-yl]phenyl}ethyl]pyridazin-4(1H)-one], with < 100 nM.
As for `CCn1cc(-n2ccc(=O)c(C(C)c3cccc(-c4ncc(COC)cn4)c3)n2)cn1` (single isomer, unassigned) [Example 217, 1-(1-ethyl-1H-pyrazol-4-yl)-3-((1S or R)-1-{3-[5-(methoxymethyl)pyrimidin-2-yl]phenyl}ethyl)pyridazin-4(1H)-one], the figure is 100 to 1000 nM; as for `Cn1cc(-n2ccc(=O)c(Cc3cccc(-c4ncc(OCC(O)CF)cn4)c3)n2)cn1` (racemic) [Example 369, rac-3-{3-[5-(3-fluoro-2-hydroxypropoxy)pyrimidin-2-yl]benzyl}-1-(1-methyl-1H-pyrazol-4-yl)pyridazin-4(1H)-one], < 100 nM.
Then `O=c1ccn(-c2cccnc2)nc1Cc1cccc(-c2ncccn2)c1` [Example 29, 1-pyridin-3-yl-3-(3-pyrimidin-2-ylbenzyl)pyridazin-4(1H)-one], with 100 to 1000 nM.
With `O=C(Nc1cccc(Cc2nn(-c3cc(F)cc(F)c3)ccc2=O)c1)OCCN1CCOCC1=O` [Example 605, 2-(3-oxomorpholin-4-yl)ethyl (3-{[1-(3,5-difluorophenyl)-4-oxo-1,4-dihydropyridazin-3-yl]methyl}phenyl)carbamate], the IC50 was < 100 nM.
As for `CCOc1cnc(-c2cccc(C(O)c3nn(-c4cnn(C)c4)ccc3=O)c2)nc1` (racemic) [Example 654, rac-3-[[3-(5-Ethoxypyrimidin-2-yl)phenyl](hydroxy)methyl]-1-(1-methyl-1H-pyrazol-4-yl)pyridazin-4(1H)-one], the figure is 100 to 1000 nM; as for `CN1CCN(c2cnc(-c3cccc(Cc4nn(-c5cnn(C)c5)ccc4=O)c3)nc2)CC1` [Example 467, 3-{3-[5-(4-methyl-piperazin-1-yl)pyrimidin-2-yl]benzyl}-1-(1-methyl-1H-pyrazol-4-yl)pyridazin-4(1H)-one], < 100 nM.
As to `Cn1cc(-n2ccc(=O)c(Cc3cccc(-c4ncc(C(=O)NCC5COCCO5)cn4)c3)n2)cn1` (racemic) [Example 476, rac-N-(1,4-dioxan-2-ylmethyl)-2-(3-{[1-(1-methyl-1H-pyrazol-4-yl)-4-oxo-1,4-dihydro-pyridazin-3-yl]methyl}phenyl)pyrimidine-5-carboxamide], the half-maximal inhibitory concentration (IC50) was < 100 nM.
